ChEMBL document CHEMBL5126592, “Design, synthesis and activity against drug-resistant bacteria evaluation of C-20, C-23 modified 5-O-mycaminosyltylonolide derivatives” (Eur J Med Chem, 2022)
Values after ≈ are worked out from the molar mass of the structure shown.

Experiments:
Format in all cases: functional
Details in all cases: time 16-20 hrs
[1] = system: Streptococcus dysgalactiae; assay: Antibacterial activity against Streptococcus dysgalactiae incubated for 16 to 20 hrs by broth microdilution method
Klebsiella pneumoniae = assay: Antibacterial activity against Klebsiella pneumoniae ATCC 13883 incubated for 16 to 20 hrs by broth microdilution method
Staphylococcus aureus [2] = assay: Antibacterial activity against Staphylococcus aureus incubated for 16 to 20 hrs by broth microdilution method
Escherichia coli [3] = assay: Antibacterial activity against Escherichia coli incubated for 16 to 20 hrs by broth microdilution method
Enterococcus faecium = assay: Antibacterial activity against Enterococcus faecium incubated for 16 to 20 hrs by broth microdilution method
Escherichia coli [4] = assay: Antibacterial activity against Escherichia coli ATCC 25922 incubated for 16 to 20 hrs by broth microdilution method
Pseudomonas aeruginosa = assay: Antibacterial activity against Pseudomonas aeruginosa LTP-3 incubated for 16 to 20 hrs by broth microdilution method
[5] = system: Staphylococcus chromogenes; assay: Antibacterial activity against Staphylococcus chromogenes incubated for 16 to 20 hrs by broth microdilution method
Staphylococcus aureus [6] = assay: Antibacterial activity against Staphylococcus aureus ATCC 25923 incubated for 16 to 20 hrs by broth microdilution method
Cronobacter sakazakii = assay: Antibacterial activity against Cronobacter sakazakii ATCC 29544 incubated for 16 to 20 hrs by broth microdilution method

Structure (SMILES)	MIC [1] [µg/mL]	MIC (Klebsiella pneumoniae) [µg/mL]	MIC (Staphylococcus aureus [2]) [µg/mL]	MIC (Escherichia coli [3]) [µg/mL]	MIC (Enterococcus faecium) [µg/mL]	MIC (Escherichia coli [4]) [µg/mL]	MIC (Pseudomonas aeruginosa) [µg/mL]	MIC [5] [µg/mL]	MIC (Staphylococcus aureus [6]) [µg/mL]	MIC (Cronobacter sakazakii) [µg/mL]
CC[C@H]1OC(=O)C[C@@H](O)[C@H](C)[C@@H](O[C@@H]2O[C@H](C)[C@@H](O)[C@H](N(C)C)[C@H]2O)[C@@H](CCN(C)Cc2cn(-c3cnc4ccccc4c3)nn2)C[C@@H](C)C(=O)/C=C/C(C)=C/[C@@H]1CO	0.5 (≈ 0.609 µM)	2 (≈ 2.44 µM)	0.25 (≈ 0.304 µM)	4 (≈ 4.87 µM)	2 (≈ 2.44 µM)	4 (≈ 4.87 µM)	4 (≈ 4.87 µM)	0.125 (≈ 0.152 µM)	1 (≈ 1.22 µM)	8 (≈ 9.74 µM)
CN[C@H](CC(C)C)C(=O)N[C@H]1C(=O)N[C@@H](CC(N)=O)C(=O)N[C@H]2C(=O)N[C@H]3C(=O)N[C@H](C(=O)N[C@H](C(=O)O)c4cc(O)cc(O)c4-c4cc3ccc4O)[C@H](O)c3ccc(c(Cl)c3)Oc3cc2cc(c3O[C@@H]2O[C@H](CO)[C@@H](O)[C@H](O)[C@H]2O[C@H]2C[C@](C)(N)[C@H](O)[C@H](C)O2)Oc2ccc(cc2Cl)[C@H]1O [VANCOMYCIN]	16 (≈ 11 µM)	32 (≈ 22.1 µM)		> 32	16 (≈ 11 µM)	32 (≈ 22.1 µM)	32 (≈ 22.1 µM)	8 (≈ 5.52 µM)	0.25 (≈ 0.173 µM)	32 (≈ 22.1 µM)
CC[C@H]1OC(=O)C[C@@H](O)[C@H](C)[C@@H](O[C@@H]2O[C@H](C)[C@@H](O)[C@H](N(C)C)[C@H]2O)[C@@H](CCN(C)Cc2cn(-c3cnc4ccccc4c3)nn2)C[C@@H](C)C(=O)/C=C/C(C)=C/[C@@H]1CN1CCCCC1	0.5 (≈ 0.563 µM)	2 (≈ 2.25 µM)	0.25 (≈ 0.281 µM)	2 (≈ 2.25 µM)	1 (≈ 1.13 µM)	2 (≈ 2.25 µM)	1 (≈ 1.13 µM)	0.5 (≈ 0.563 µM)	0.5 (≈ 0.563 µM)	8 (≈ 9.01 µM)
CC[C@H]1OC(=O)C[C@@H](O)[C@H](C)[C@@H](O[C@@H]2O[C@H](C)[C@@H](O)[C@H](N(C)C)[C@H]2O)[C@@H](CCN(C)Cc2cn(-c3cnc4ccccc4c3)nn2)C[C@@H](C)C(=O)/C=C/C(C)=C/[C@@H]1CN1CCCCCCC1	0.5 (≈ 0.546 µM)	1 (≈ 1.09 µM)	0.5 (≈ 0.546 µM)	2 (≈ 2.18 µM)	2 (≈ 2.18 µM)	2 (≈ 2.18 µM)	1 (≈ 1.09 µM)	1 (≈ 1.09 µM)	0.125 (≈ 0.136 µM)	4 (≈ 4.37 µM)
CC[C@H]1OC(=O)C[C@@H](O)[C@H](C)[C@@H](O[C@@H]2O[C@H](C)[C@@H](O)[C@H](N(C)C)[C@H]2O)[C@@H](CCN(C)Cc2cn(-c3cnc4ccccc4c3)nn2)C[C@@H](C)C(=O)/C=C/C(C)=C/[C@@H]1CN(C)C	2 (≈ 2.36 µM)	2 (≈ 2.36 µM)	0.25 (≈ 0.295 µM)	2 (≈ 2.36 µM)	1 (≈ 1.18 µM)	2 (≈ 2.36 µM)	2 (≈ 2.36 µM)	0.5 (≈ 0.59 µM)	0.25 (≈ 0.295 µM)	4 (≈ 4.72 µM)
CC[C@H]1OC(=O)C[C@@H](O)[C@H](C)[C@@H](O[C@@H]2O[C@H](C)[C@@H](O)[C@H](N(C)C)[C@H]2O)[C@@H](CC=O)C[C@@H](C)C(=O)/C=C/C(C)=C/[C@@H]1CO	1 (≈ 1.67 µM)	> 32	1 (≈ 1.67 µM)	> 32	1 (≈ 1.67 µM)	> 32	32 (≈ 53.5 µM)	1 (≈ 1.67 µM)	0.5 (≈ 0.836 µM)	> 32
CC[C@H]1OC(=O)C[C@@H](O)[C@H](C)[C@@H](O[C@@H]2O[C@H](C)[C@@H](O)[C@H](N(C)C)[C@H]2O)[C@@H](CCN(C)Cc2cn(-c3cnc4ccccc4c3)nn2)C[C@@H](C)C(=O)/C=C/C(C)=C/[C@@H]1CN(CC)CC	0.5 (≈ 0.571 µM)	1 (≈ 1.14 µM)	0.5 (≈ 0.571 µM)	4 (≈ 4.57 µM)	2 (≈ 2.28 µM)	2 (≈ 2.28 µM)	2 (≈ 2.28 µM)	1 (≈ 1.14 µM)	0.125 (≈ 0.143 µM)	4 (≈ 4.57 µM)
CCCN1C[C@H](C)[C@@H](O)[C@](C)(O)[C@@H](CC)OC(=O)[C@H](C)[C@@H](O[C@H]2C[C@](C)(OC)[C@H](O)[C@@H](C)O2)[C@H](C)[C@@H](O[C@@H]2O[C@H](C)C[C@H](N(C)C)[C@H]2O)[C@](C)(O)C[C@H]1C	32 (≈ 41.2 µM)	16 (≈ 20.6 µM)	8 (≈ 10.3 µM)	16 (≈ 20.6 µM)	32 (≈ 41.2 µM)	16 (≈ 20.6 µM)	32 (≈ 41.2 µM)	8 (≈ 10.3 µM)	4 (≈ 5.15 µM)	16 (≈ 20.6 µM)
CC[C@H]1OC(=O)C[C@@H](O)[C@H](C)[C@@H](O[C@@H]2O[C@H](C)[C@@H](O)[C@H](N(C)C)[C@H]2O)[C@@H](CCN(Cc2ccc([N+](=O)[O-])cc2)Cc2cn(-c3cnc4ccccc4c3)nn2)C[C@@H](C)C(=O)/C=C/C(C)=C/[C@@H]1CO		32 (≈ 34 µM)				32 (≈ 34 µM)			0.25 (≈ 0.265 µM)	32 (≈ 34 µM)
CC[C@H]1OC(=O)C[C@@H](O)[C@H](C)[C@@H](O[C@@H]2O[C@H](C)[C@@H](O)[C@H](N(C)C)[C@H]2O)[C@@H](CCN(Cc2ccc(C(F)(F)F)cc2)Cc2cn(-c3cnc4ccccc4c3)nn2)C[C@@H](C)C(=O)/C=C/C(C)=C/[C@@H]1CN1CC(C)CC(C)C1 (some centres undefined)		16 (≈ 15.1 µM)				32 (≈ 30.2 µM)			4 (≈ 3.77 µM)	16 (≈ 15.1 µM)
CC[C@H]1OC(=O)C[C@@H](O)[C@H](C)[C@@H](O[C@@H]2O[C@H](C)[C@@H](O)[C@H](N(C)C)[C@H]2O)[C@@H](CCN(Cc2cn(-c3cnc4ccccc4c3)nn2)Cc2c(OC)cc(OC)cc2OC)C[C@@H](C)C(=O)/C=C/C(C)=C/[C@@H]1CO		32 (≈ 32.4 µM)				16 (≈ 16.2 µM)			0.5 (≈ 0.506 µM)	32 (≈ 32.4 µM)
CC[C@H]1OC(=O)C[C@@H](O)[C@H](C)[C@@H](O[C@@H]2O[C@H](C)[C@@H](O)[C@H](N(C)C)[C@H]2O)[C@@H](CCN(Cc2ccc(C)cc2)Cc2cn(-c3cnc4ccccc4c3)nn2)C[C@@H](C)C(=O)/C=C/C(C)=C/[C@@H]1CO		16 (≈ 17.6 µM)				16 (≈ 17.6 µM)			0.5 (≈ 0.549 µM)	16 (≈ 17.6 µM)
CC[C@H]1OC(=O)C[C@@H](O)[C@H](C)[C@@H](O[C@@H]2O[C@H](C)[C@@H](O)[C@H](N(C)C)[C@H]2O)[C@@H](CCN(Cc2ccccc2)Cc2cn(-c3cnc4ccccc4c3)nn2)C[C@@H](C)C(=O)/C=C/C(C)=C/[C@@H]1CN(C)C		4 (≈ 4.33 µM)				8 (≈ 8.66 µM)			1 (≈ 1.08 µM)	16 (≈ 17.3 µM)
CC[C@H]1OC(=O)C[C@@H](O)[C@H](C)[C@@H](O[C@@H]2O[C@H](C)[C@@H](O)[C@H](N(C)C)[C@H]2O)[C@@H](CCN(Cc2ccc(C(F)(F)F)cc2)Cc2cn(-c3cnc4ccccc4c3)nn2)C[C@@H](C)C(=O)/C=C/C(C)=C/[C@@H]1CN1CCCCCC1		4 (≈ 3.82 µM)				4 (≈ 3.82 µM)			1 (≈ 0.956 µM)	8 (≈ 7.65 µM)
CC[C@H]1OC(=O)C[C@@H](O)[C@H](C)[C@@H](O[C@@H]2O[C@H](C)[C@@H](O)[C@H](N(C)C)[C@H]2O)[C@@H](CCN(Cc2cn(-c3cnc4ccccc4c3)nn2)Cc2ccco2)C[C@@H](C)C(=O)/C=C/C(C)=C/[C@@H]1CN(CC)CC		16 (≈ 17 µM)				4 (≈ 4.25 µM)			1 (≈ 1.06 µM)	8 (≈ 8.49 µM)
CC[C@H]1OC(=O)C[C@@H](O)[C@H](C)[C@@H](O[C@@H]2O[C@H](C)[C@@H](O)[C@H](N(C)C)[C@H]2O)[C@@H](CCN(Cc2ccc(NC(C)=O)cc2)Cc2cn(-c3cnc4ccccc4c3)nn2)C[C@@H](C)C(=O)/C=C/C(C)=C/[C@@H]1CO		32 (≈ 33.5 µM)				32 (≈ 33.5 µM)			2 (≈ 2.1 µM)	32 (≈ 33.5 µM)
CC[C@H]1OC(=O)C[C@@H](O)[C@H](C)[C@@H](O[C@@H]2O[C@H](C)[C@@H](O)[C@H](N(C)C)[C@H]2O)[C@@H](CCN(Cc2cncnc2)Cc2cn(-c3cnc4ccccc4c3)nn2)C[C@@H](C)C(=O)/C=C/C(C)=C/[C@@H]1CO		32 (≈ 35.6 µM)				32 (≈ 35.6 µM)			0.5 (≈ 0.556 µM)	32 (≈ 35.6 µM)
CC[C@H]1OC(=O)C[C@@H](O)[C@H](C)[C@@H](O[C@@H]2O[C@H](C)[C@@H](O)[C@H](N(C)C)[C@H]2O)[C@@H](CCN(Cc2ccc(OC)cc2)Cc2cn(-c3cnc4ccccc4c3)nn2)C[C@@H](C)C(=O)/C=C/C(C)=C/[C@@H]1CO		16 (≈ 17.3 µM)				8 (≈ 8.63 µM)			0.25 (≈ 0.27 µM)	32 (≈ 34.5 µM)
CC[C@H]1OC(=O)C[C@@H](O)[C@H](C)[C@@H](O[C@@H]2O[C@H](C)[C@@H](O)[C@H](N(C)C)[C@H]2O)[C@@H](CCN(Cc2cn(-c3cnc4ccccc4c3)nn2)Cc2ccco2)C[C@@H](C)C(=O)/C=C/C(C)=C/[C@@H]1CI		16 (≈ 16 µM)				32 (≈ 32.1 µM)			2 (≈ 2.01 µM)	16 (≈ 16 µM)
CC[C@H]1OC(=O)C[C@@H](O)[C@H](C)[C@@H](O[C@@H]2O[C@H](C)[C@@H](O)[C@H](N(C)C)[C@H]2O)[C@@H](CCN(Cc2cn(-c3cnc4ccccc4c3)nn2)Cc2nccs2)C[C@@H](C)C(=O)/C=C/C(C)=C/[C@@H]1CO		32 (≈ 35.4 µM)				32 (≈ 35.4 µM)			0.5 (≈ 0.553 µM)	32 (≈ 35.4 µM)
CCCN(C)C[C@H]1/C=C(C)/C=C/C(=O)[C@H](C)C[C@H](CCN(C)Cc2cn(-c3cnc4ccccc4c3)nn2)[C@H](O[C@@H]2O[C@H](C)[C@@H](O)[C@H](N(C)C)[C@H]2O)[C@@H](C)[C@H](O)CC(=O)O[C@@H]1CC		8 (≈ 9.13 µM)				8 (≈ 9.13 µM)			0.5 (≈ 0.571 µM)	16 (≈ 18.3 µM)
CC[C@H]1OC(=O)C[C@@H](O)[C@H](C)[C@@H](O[C@@H]2O[C@H](C)[C@@H](O)[C@H](N(C)C)[C@H]2O)[C@@H](CCN(Cc2ccc(N(C)C)cc2)Cc2cn(-c3cnc4ccccc4c3)nn2)C[C@@H](C)C(=O)/C=C/C(C)=C/[C@@H]1CI		16 (≈ 15.2 µM)				32 (≈ 30.5 µM)			4 (≈ 3.81 µM)	32 (≈ 30.5 µM)
CC[C@H]1OC(=O)C[C@@H](O)[C@H](C)[C@@H](O[C@@H]2O[C@H](C)[C@@H](O)[C@H](N(C)C)[C@H]2O)[C@@H](CCN(C)Cc2cn(-c3cnc4ccccc4c3)nn2)C[C@@H](C)C(=O)/C=C/C(C)=C/[C@@H]1CN1CCC(O)CC1		16 (≈ 17.7 µM)				16 (≈ 17.7 µM)			8 (≈ 8.85 µM)	32 (≈ 35.4 µM)
